In article PMC4303209, “A novel phosphatidylinositol 3-kinase (PI3K) inhibitor directs a potent FOXO-dependent, p53-independent cell cycle arrest phenotype characterized by the differential induction of a subset of FOXO-regulated genes” (Breast Cancer Research : BCR, 2014):

Tested on: MCF-7 breast cancer cells
Assay: Microarray gene expression analysis (Agilent whole human genome 4 x 44K; compound vs DMSO, LIMMA log2 fold change)
Type: cell-based

## Oc1cccc(-c2nc(N3CCOCC3)c3oc4ncccc4c3n2)c1 [PI-103]
  PRNP log2FC: 0.095
  log2FC: 0.10
Apoptosis genes, Gene 16
  AARS log2FC: -0.158
Apoptosis genes, Gene 25
  ABL1 log2FC: -0.144
Apoptosis genes, Gene 29
  ABR log2FC: -0.279
Apoptosis genes, Gene 81
  ACTN4 log2FC: -0.244
Apoptosis genes, Gene 87
  ACTN1 log2FC: -0.457
Apoptosis genes, Gene 88
  ACTN2 log2FC: 0.074
Apoptosis genes, Gene 89
  ACTN3 log2FC: -0.703
Apoptosis genes, Gene 90
  ACVR1 log2FC: 0.552
Apoptosis genes, Gene 91
  ACVR1B log2FC: -0.214
Apoptosis genes, Gene 100
  ADA log2FC: -0.093
Apoptosis genes, Gene 101
  ADAM8 log2FC: -0.513
Apoptosis genes, Gene 103
  ADAR log2FC: -0.239
Apoptosis genes, Gene 116
  ADCYAP1 log2FC: 0.042
Apoptosis genes, Gene 118
  ADD1 log2FC: -0.173
Apoptosis genes, Gene 133
  ADM log2FC: -0.875
Apoptosis genes, Gene 134
  ADORA1 log2FC: -1.870
Apoptosis genes, Gene 135
  ADORA2A log2FC: -0.109
Apoptosis genes, Gene 153
  ADRB1 log2FC: -0.133
Apoptosis genes, Gene 166
  AES log2FC: -0.056
Apoptosis genes, Gene 183
  AGT log2FC: -0.084
Apoptosis genes, Gene 196
  AHR log2FC: 0.783
Apoptosis genes, Gene 207
  AKT1 log2FC: -0.579
Apoptosis genes, Gene 208
  AKT2 log2FC: -0.406
Apoptosis genes, Gene 220
  ALDH1A3 log2FC: -0.150
Apoptosis genes, Gene 230
  ALDOC log2FC: 0.017
Apoptosis genes, Gene 238
  ALK log2FC: 0.007
Apoptosis genes, Gene 247
  ALOX15B log2FC: -0.00234
Apoptosis genes, Gene 284
  ANGPT1 log2FC: -0.412
Apoptosis genes, Gene 291
  SLC25A4 log2FC: -0.414
Apoptosis genes, Gene 292
  SLC25A5 log2FC: -0.037
Apoptosis genes, Gene 301
  ANXA1 log2FC: 0.803
Apoptosis genes, Gene 307
  ANXA4 log2FC: 0.480
Apoptosis genes, Gene 308
  ANXA5 log2FC: 0.167
Apoptosis genes, Gene 317
  APAF1 log2FC: 0.575
Apoptosis genes, Gene 318
  NUDT2 log2FC: 0.219
Apoptosis genes, Gene 323
  APBB2 log2FC: -0.180
Apoptosis genes, Gene 324
  APC log2FC: 0.150
Apoptosis genes, Gene 330
  BIRC3 log2FC: -0.884
Apoptosis genes, Gene 332
  BIRC5 log2FC: 0.037
Apoptosis genes, Gene 333
  APLP1 log2FC: -0.057
Apoptosis genes, Gene 348
  APOE log2FC: 0.390
Apoptosis genes, Gene 351
  APP log2FC: 0.331
Apoptosis genes, Gene 356
  FASLG log2FC: -0.231
Apoptosis genes, Gene 359
  AQP2 log2FC: -0.010
Apoptosis genes, Gene 367
  AR log2FC: 0.287
Apoptosis genes, Gene 369
  ARAF log2FC: -0.336
Apoptosis genes, Gene 382
  ARF6 log2FC: -0.566
Apoptosis genes, Gene 388
  RHOB log2FC: -0.099
Apoptosis genes, Gene 393
  ARHGAP4 log2FC: 0.173
Apoptosis genes, Gene 396
  ARHGDIA log2FC: -0.904
Apoptosis genes, Gene 409
  ARRB2 log2FC: 0.444
Apoptosis genes, Gene 429
  ASCL1 log2FC: -0.053
Apoptosis genes, Gene 440
  ASNS log2FC: -0.385
Apoptosis genes, Gene 468
  ATF4 log2FC: -0.201
Apoptosis genes, Gene 472
  ATM log2FC: 0.013
Apoptosis genes, Gene 487
  ATP2A1 log2FC: -0.025
Apoptosis genes, Gene 551
  AVP log2FC: -0.317
Apoptosis genes, Gene 558
  AXL log2FC: 0.362
Apoptosis genes, Gene 566
  AZU1 log2FC: 0.048
Apoptosis genes, Gene 572
  BAD log2FC: 0.529
Apoptosis genes, Gene 573
  BAG1 log2FC: 1.113
Apoptosis genes, Gene 578
  BAK1 log2FC: -0.383
Apoptosis genes, Gene 580
  BARD1 log2FC: 0.336
Apoptosis genes, Gene 581
  BAX log2FC: -0.146
Apoptosis genes, Gene 596
  BCL2 log2FC: -0.342
Apoptosis genes, Gene 597
  BCL2A1 log2FC: -0.041
Apoptosis genes, Gene 598
  BCL2L1 log2FC: -0.919
Apoptosis genes, Gene 599
  BCL2L2 log2FC: 0.313
Apoptosis genes, Gene 602
  BCL3 log2FC: -1.077
Apoptosis genes, Gene 604
  BCL6 log2FC: 1.197
Apoptosis genes, Gene 627
  BDNF log2FC: -0.180
Apoptosis genes, Gene 637
  BID log2FC: -0.261
Apoptosis genes, Gene 638
  BIK log2FC: -0.571
Apoptosis genes, Gene 641
  BLM log2FC: 0.071
Apoptosis genes, Gene 652
  BMP4 log2FC: 0.224
Apoptosis genes, Gene 655
  BMP7 log2FC: -0.324
Apoptosis genes, Gene 658
  BMPR1B log2FC: -0.150
Apoptosis genes, Gene 660
  BMX log2FC: 0.041
Apoptosis genes, Gene 662
  BNIP1 log2FC: 0.320
Apoptosis genes, Gene 663
  BNIP2 log2FC: 0.429
Apoptosis genes, Gene 664
  BNIP3 log2FC: 0.757
Apoptosis genes, Gene 665
  BNIP3L log2FC: 1.132
Apoptosis genes, Gene 668
  FOXL2 log2FC: -0.465
Apoptosis genes, Gene 672
  BRCA1 log2FC: 0.741
Apoptosis genes, Gene 673
  BRAF log2FC: 0.018
Apoptosis genes, Gene 675
  BRCA2 log2FC: 0.100
Apoptosis genes, Gene 685
  BTC log2FC: 0.236
Apoptosis genes, Gene 694
  BTG1 log2FC: 1.197
Apoptosis genes, Gene 699
  BUB1 log2FC: 0.591
Apoptosis genes, Gene 701
  BUB1B log2FC: 0.146
Apoptosis genes, Gene 706
  TSPO log2FC: 0.105
Apoptosis genes, Gene 728
  C5AR1 log2FC: 0.079
Apoptosis genes, Gene 773
  CACNA1A log2FC: -0.069
Apoptosis genes, Gene 811
  CALR log2FC: -0.161
Apoptosis genes, Gene 816
  CAMK2B log2FC: 0.010
Apoptosis genes, Gene 831
  CAST log2FC: 0.459
Apoptosis genes, Gene 834
  CASP1 log2FC: 0.025
Apoptosis genes, Gene 835
  CASP2 log2FC: -0.763
Apoptosis genes, Gene 836
  CASP3 log2FC: 0.305
Apoptosis genes, Gene 837
  CASP4 log2FC: 0.021
Apoptosis genes, Gene 838
  CASP5 log2FC: -0.191
Apoptosis genes, Gene 839
  CASP6 log2FC: 0.478
Apoptosis genes, Gene 840
  CASP7 log2FC: -0.335
Apoptosis genes, Gene 841
  CASP8 log2FC: 0.045
Apoptosis genes, Gene 842
  CASP9 log2FC: 0.133
Apoptosis genes, Gene 846
  CASR log2FC: 0.046
Apoptosis genes, Gene 847
  CAT log2FC: 0.456
Apoptosis genes, Gene 857
  CAV1 log2FC: 0.357
Apoptosis genes, Gene 864
  RUNX3 log2FC: -0.359
Apoptosis genes, Gene 867
  CBL log2FC: 0.455
Apoptosis genes, Gene 875
  CBS log2FC: -0.393
Apoptosis genes, Gene 889
  KRIT1 log2FC: 0.580
Apoptosis genes, Gene 900
  CCNG1 log2FC: 0.460
Apoptosis genes, Gene 914
  CD2 log2FC: -0.198
Apoptosis genes, Gene 916
  CD3E log2FC: -0.245
Apoptosis genes, Gene 917
  CD3G log2FC: -0.217
Apoptosis genes, Gene 921
  CD5 log2FC: 0.023
Apoptosis genes, Gene 922
  CD5L log2FC: -0.081
Apoptosis genes, Gene 929
  CD14 log2FC: -0.379
Apoptosis genes, Gene 940
  CD28 log2FC: 0.036
Apoptosis genes, Gene 958
  CD40 log2FC: -0.612
Apoptosis genes, Gene 960
  CD44 log2FC: -0.262
Apoptosis genes, Gene 966
  CD59 log2FC: -0.006
Apoptosis genes, Gene 972
  CD74 log2FC: 0.013
Apoptosis genes, Gene 997
  CDC34 log2FC: 0.509
Apoptosis genes, Gene 998
  CDC42 log2FC: 0.080
Apoptosis genes, Gene 1019
  CDK4 log2FC: 0.170
Apoptosis genes, Gene 1026
  CDKN1A log2FC: -1.229
Apoptosis genes, Gene 1027
  CDKN1B log2FC: 1.116
Apoptosis genes, Gene 1029
  CDKN2A log2FC: 0.303
Apoptosis genes, Gene 1032
  CDKN2D log2FC: 0.903
Apoptosis genes, Gene 1051
  CEBPB log2FC: -0.197
Apoptosis genes, Gene 1072
  CFL1 log2FC: -0.246
Apoptosis genes, Gene 1075
  CTSC log2FC: -0.333
Apoptosis genes, Gene 1082
  CGB log2FC: -0.180
Apoptosis genes, Gene 1191
  CLU log2FC: 0.052
Apoptosis genes, Gene 1201
  CLN3 log2FC: -0.046
Apoptosis genes, Gene 1236
  CCR7 log2FC: 0.113
Apoptosis genes, Gene 1263
  PLK3 log2FC: -1.591
Apoptosis genes, Gene 1268
  CNR1 log2FC: 0.471
Apoptosis genes, Gene 1386
  ATF2 log2FC: 0.878
Apoptosis genes, Gene 1392
  CRH log2FC: 0.059
Apoptosis genes, Gene 1396
  CRIP1 log2FC: 0.723
Apoptosis genes, Gene 1409
  CRYAA log2FC: -0.050
Apoptosis genes, Gene 1410
  CRYAB log2FC: -0.029
Apoptosis genes, Gene 1432
  MAPK14 log2FC: -0.303
Apoptosis genes, Gene 1434
  CSE1L log2FC: 0.551
Apoptosis genes, Gene 1437
  CSF2 log2FC: -0.616
Apoptosis genes, Gene 1457
  CSNK2A1 log2FC: -0.647
Apoptosis genes, Gene 1459
  CSNK2A2 log2FC: 0.329
Apoptosis genes, Gene 1476
  CSTB log2FC: 0.261
Apoptosis genes, Gene 1482
  NKX2-5 log2FC: -0.572
Apoptosis genes, Gene 1490
  CTGF log2FC: -0.354
Apoptosis genes, Gene 1491
  CTH log2FC: 0.722
